Assay results from patent US5204311A, “Ethanediimidic acid bis[(arylalkylidene)hydrazide] color-formers” (Minnesota Mining and Manufacturing Company, priority 1991, dated 1993).

Assays:
Format in all cases: physicochemical
[1] = Solubility in capsule fill solvents
Experimental: The encapsulation process requires the color-forming ligand be dissolved in a solvent or mixed solvents, because of the nature of the procedure. Formation of a microcapsule shell as by condensation of urea or melamine with an aldehyde such as formaldehyde or mixtures of aldehydes to form the capsule shell is carried out in an acidic aqueous medium and the color-former solution must be insoluble and unreactive to these reagents for the encapsulation to proceed. Solvents commonly used include tributyl phosphate, diethyl phthalate, and cyclohexane. […] As mentioned above, solubility of yellow color-formers exemplified by structure I in nonaqueous solvents such as those used in the encapsulation process may be increased by substituting alkyl, aryl, aralkyl, alkenyl, or such groups for the hydrogens on the various positions available in the structure I above.
This color observed on the CF sheet was yellow. […] Solubility in a solvent blend of tributyl phosphate, diethyl phthalate and cyclohexane (capsule solvents for preparing carbonless copy-paper) was >9% by weight. Thus the ligand is eminently suitable for encapsulation. The ligand is not volatile at 71 ° C. overnight.
Solubility in a solvent blend of tributyl phosphate, diethyl phthalate and cyclohexane (capsule solvents for preparing carbonless copy-paper) was 3% by weight. Thus the ligand is eminently suitable for encapsulation. The ligand is not volatile at 71 ° C. overnight.
*THE SOLUBILITY WAS DEEMED PREFERABLE IF IT WAS GREATER THAN 2% IN THE
FILL MIX AT ROOM TEMPERATURE FOR 3 DAYS. THE FILL MIX COMPRISED
TRIBUTYLPHOSPHATE (26.5%); DIETHYLPHTHALATE (17.6%); AND CYCLOHEXANE

[2] = Color of coated CB sheet before imaging; conditions: encapsulated, before imaging (Experiments 6, 7)
Experimental: (§1) The capsule slurry (10 g) was added to 65 g of a 1.5% aqueous sodium alginate solution. The mixture was applied to a coated paper using a bar coater with a 3 mil gap. The coating was allowed to dry at room temperature.
(§2) A 2% solution of the compound 1 in the capsule fill solvent of diethyl phthalate, tributyl phosphate, and cyclohexane was encapsulated by the procedure described in Experiment 5 above. A coating mixture of 10.0 g of capsule slurry, 2.5 g of Dow-620 butadiene-styrene latex, and 62.5 g of 1.5% sodium alginate slurry was coated onto paper by the draw down procedure described above.
A 7.5% solution comprising 5.45% N-(5-octanoylamido-2-metylpentyl)dithiooxamide/N-(5-octanoylamido-4-methylpentyl)dithiooxamide (G') mixture and 2.05% N,N'-di(5-octanoylamido-2-methylpentyl)dithiooxamide/N-(5-octanoylamido-2- methylpentyl)-N'-(5-octanoylamido-4-methylpentyl)dithiooxamide/N,N'-(5-octanoylamido-2-methylpentyl)dithiooxamide (G) mixture in the fill solvent mixture of diethyl phthalate, tributyl phosphate, and cyclohexanone was encapsulated by the procedure described above. A coating mixture of 10.0 g of capsule slurry, 2.5 g of Dow 620 styrene-butadiene latex, and 62.5 g of 1.5% sodium alginate solution was coated onto paper by the draw down procedure described in Experiment 5 above. […]

[3] = Imaging of CB sheet with encapsulated color-former on Ni-coated CF sheet
Experimental: A precondensate solution was prepared comprising 192 g of formalin, 0.63 g of potassium tetraborate, 72 g of urea, and 328 g of soft water. The formalin was 37% formaldehyde and was added to a 1-liter flask equipped with a stirrer and heating mantle. The potassium tetraborate and urea were then added, and the mixture was heated to 70° C. The reaction was maintained at that temperature for 2.5-3.0 hr. The reaction mixture was then diluted with the water and allowed to cool. The precondensate solution, with about 24% solids, was then ready for use in the encapsulation process.
The precondensate and fill (ethanediimidic acid bis[hydrazide] and carrier or fill solvents) were combined to make capsules according to the following procedure. Sodium chloride (29.54 g) was added to the stirred precondensate solution and the temperature of the solution was adjusted to 20° C. The fill material (215 g) was added and full agitation was begun. After 5 minutes of stirring, 10% hydrochloric acid solution was added over 5 minutes in an amount such that the final pH of the reaction mixture was about 2.8. The reaction mixture was stirred for another 12 minutes. More of the 10% hydrochloric acid solution was added over a period of 12 minutes, in an amount such that the final pH of the solution was about […]. The reaction mixture was stirred at 20° C. for 1 hr, and then at 60° C. for 1-3 hr. The acidic solution was allowed to cool and adjusted to a pH of 7 by addition of concentrated ammonium hydroxide solution (28%). The capsule slurry could then be stored for later use.
as §1, §2
A 7.5% solution comprising 5.45% N-(5-octanoylamido-2-metylpentyl)dithiooxamide/N-(5-octanoylamido-4-methylpentyl)dithiooxamide (G') mixture and 2.05% N,N'-di(5-octanoylamido-2-methylpentyl)dithiooxamide/N-(5-octanoylamido-2- methylpentyl)-N'-(5-octanoylamido-4-methylpentyl)dithiooxamide/N,N'-(5-octanoylamido-2-methylpentyl)dithiooxamide (G) mixture in the fill solvent mixture of diethyl phthalate, tributyl phosphate, and cyclohexanone was encapsulated by the procedure described above. A coating mixture of 10.0 g of capsule slurry, 2.5 g of Dow 620 styrene-butadiene latex, and 62.5 g of 1.5% sodium alginate solution was coated onto paper by the draw down procedure described in Experiment 5 above.
A blend was prepared of 10 g of the capsule slurry containing compound 1, with 10 g of capsule slurry containing 5.45% N-(5-octanoylamido-2-methylpentyl)dithiooxamide/N-(5-octanoylamido-4-methylpentyl)dithiooxamide (G') mixture and 2.05% N,N'-di(5-octanoylamido-2-methylpentyl)dithiooxamide/N-(5-octanoylamido-2- methylpentyl)-N'-(5-octanoylamido-4-methylpentyl)dithiooxamide/N,N'-di(5-octanoylamido-4-methylpentyl)dithiooxamide (G) mixture. […]

[4] = Stability in concentrated hydrochloric acid
[5] = encapsulated, 2% compound 1 fill, 7.5% G'/G fill, or blend of both capsule slurries (Experiment 6)

Solubility in a solvent blend of tributyl phosphate, diethyl phthalate and cyclohexane [1]: > 9 % by weight
solubility in encapsulation / capsule solvents (in words) [1]: very soluble in encapsulation solvents
Dye Solubility ([1]; 4320 min): > 9.0%
color of coated (CB) sheet [2]: neutral in color
Image Color ([3]; encapsulated (Experiment 6)): yellow
Hunter coordinate L [3, 5]: 84.0
Hunter coordinate a [3, 5]: -2.04
Hunter coordinate b [3, 5]: 31.0
stability in concentrated hydrochloric acid [4]: stable
Compound: CC(C)(C)c1cc(C=NN=C(N)C(N)=NN=Cc2cc(C(C)(C)C)cc(C(C)(C)C)c2O)c(O)c(C(C)(C)C)c1 [Compound 1, ethanediimidic acid bis[(3,5-di-t-butylsalicylidene)hydrazide]]
